From US10640507B2, “PBD antibacterial agents” (KING'S COLLEGE LONDON, priority 2015, dated 2020)
≈ marks a conversion by molar mass, not a printed value.

Columns and labels:
[1] = target: T1, S. aureus Topo IV (Staphylococcus aureus, UniProt P0C1S7+P0C1U9); assay: Topo IV microplate assay; assay type: biochemical; settings: agent 10-75 μM, FIG. 5
T1 construct: purchased Inspiralis (Norwich, UK) SATRIV01
Procedure: (§1) The effect of the antimicrobial agents on gyrase was assessed using E. coli gyrase microplate assay kit (# TRG01) and with S. aureus gyrase microplate assay kit (# SATRG01). The effect of topoisomerase IV using was assessed using E. coli Topo IV microplate assay kit (# TRIV01) and with the S. aureus Topo IV microplate assay kit (# SATRIV01). All of these assay kits were obtained from Inspiralis (Norwich, UK). These assay kits are supplied with the relevant enzyme, substrate and buffers.
(§2) 1. Rehydrate wells with 3×200 μl Wash buffer (diluted from 20× stock with ultra-pure water).
(§3) 2. Immobilise 100 μl of 500 nM TF01 oligo in each well (5 μl of 10 μM TF01 oligo in 95 μl wash buffer).
(§4) 3. Incubate 5 minutes at room temperature.
(§5) 4. Wash off excess oligo with 3×200 μl Wash buffer.
(§6) 5. Incubate 2U (0.4 μl stock) of gyrase with 0.75 μg of relaxed pN01 in a reaction volume of 30 μl at 37° C. for 30 minutes in assay buffer—This is the part agent is added therefore the reaction volume is adjusted to account for this.
(§7) 6. Add 100 μl TF buffer (diluted from 20× stock) to well and incubate for a further 30 minutes at room temperature to allow triplex formation.
(§8) 7. Remove liquid from well and wash with 3×200 μl TF buffer to wash away unbound plasmid.
(§9) 8. Stain with DNA detection dye (diluted to ix with T10 buffer). Add 200 μl per well and incubate for 10-20 minutes at room temperature.
(§10) 9. Mix well and read in fluorescence plate reader Excitation wavelength: 495 nm; Emission wavelength: 537 nm. Use 485/520 filters in plate reader in 231.
(§11) 10. If required 10 μl of sample can be used to run on 1% agarose gel.
(§12) As the reaction volume is 30 μl make concentrations at 30× greater than required so 1 μl of the appropriate concentration can be added to the reaction. For each agent concentrations from a range of 10-75 μM.
(§13) The procedure for assessing effect of the agents on topoisomerase IV was the same as for the gyrase apart from the following changes; 1.5 U of topoisomerase IV was used in place of gyrase and supercoiled pN01 instead of relaxed pN01 was used in step 5. Results obtained were normalised using the following equation: […]
(§14) Xmin—minima among all data points
(§15) Xmax—maxima among all data points
(§16) Xi0-1—data point normalised between 0-1

[2] = target: T2, E. coli Topo IV (Escherichia coli, UniProt P0AFI2+P20083); assay: Topo IV microplate assay; assay type: biochemical; settings: agent 10-75 μM, FIG. 5
T2 construct: purchased Inspiralis (Norwich, UK) TRIV01
Procedure: as §1, §2, §3, §4, §5, §6, §7, §8, §9, §10, §11, §12, §13, §14, §15, §16

[3] = tested on: B. cepacia CEP509 (LMG 18821); assay: General MIC protocol, Gram negative; assay type: cell-based; settings: Burkholderia cepacia, LMG18821
Method in brief: (§17)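 TSB cultures at 5×10^5/ml exposed to halving compound concentrations (32 μg/ml highest final); 20 h incubation at 37° C, growth measured at 600 nm.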

[4] = tested on: A. baumannii ADP1; assay: General MIC protocol, Gram negative; assay type: cell-based; settings: Acinetobacter baumannii
Method in brief: as §17

[5] = tested on: A. baumannii UKA2; assay: General MIC protocol, Gram negative; assay type: cell-based; settings: Acinetobacter baumannii
Method in brief: as §17

[6] = tested on: B. multivorans C1576 (LMG 16660); assay: General MIC protocol, Gram negative; assay type: cell-based; settings: Burkholderia multivorans, LMG16660
Method in brief: as §17

[7] = tested on: B. cepacia LMG 17997; assay: General MIC protocol, Gram negative; assay type: cell-based; settings: Burkholderia cepacia, LMG17997
Method in brief: as §17

[8] = tested on: A. baumannii W1; assay: General MIC protocol, Gram negative; assay type: cell-based; settings: Acinetobacter baumannii
Method in brief: as §17

[9] = tested on: K. pneumonia NCTC 46704; assay: General MIC protocol, Gram negative; assay type: cell-based; settings: Klebsiella pneumoniae, NCTC46704
Method in brief: as §17

[10] = tested on: A. baumannii NCTC 13302; assay: General MIC protocol, Gram negative; assay type: cell-based; settings: Acinetobacter baumannii, NCTC13302
Method in brief: as §17

[11] = tested on: B. multivorans C1962 (LMG 16665); assay: General MIC protocol, Gram negative; assay type: cell-based; settings: Burkholderia multivorans, LMG16665
Method in brief: as §17

[12] = tested on: B. cepacia NCTC 10743; assay: General MIC protocol, Gram negative; assay type: cell-based; settings: Burkholderia cepacia, NCTC10743
Method in brief: as §17

[13] = tested on: B. cepacia ATCC 17765; assay: General MIC protocol, Gram negative; assay type: cell-based; settings: Burkholderia cepacia, ATCC17765
Method in brief: as §17

[14] = tested on: A. baumannii UKA7; assay: General MIC protocol, Gram negative; assay type: cell-based; settings: Acinetobacter baumannii
Method in brief: as §17

[15] = tested on: A. baumannii NCTC 13424; assay: General MIC protocol, Gram negative; assay type: cell-based; settings: Acinetobacter baumannii, NCTC13424
Method in brief: as §17

[16] = tested on: B. cenocepa K56-2; assay: General MIC protocol, Gram negative; assay type: cell-based
Method in brief: as §17

[17] = tested on: resistant mutants of KP 13438; assay: MIC following resistance development; assay type: cell-based, Klebsiella; settings: Klebsiella, OFKP13438, read-out: MIC of resistant mutants (in brackets)
Procedure: General Minimum Inhibitory Concentration (MIC) Protocol
1. Grow up cultures of bacterial strains to be tested overnight.
2. Dilute down overnight cultures to concentration of 1×10^6 bacteria/ml (OD0.01) in Tryptic soy broth (TSB).
3. Add 100 μl of TSB media to column 2-column 12 in 96 well plate (keeping column 1 clear).
4. Make up compound to a concentration of 64 μg/ml in water (or alternatively to twice the chosen maximum concentration to be tested).
5. Add 100 μl of antibiotic solution to the 1st and 2nd columns.
6. Using a multichannel pipette take 100 μl from the 2nd column wells and pipette into 3rd column wells and repeat down the 96 well plate (remembering to include controls i.e. uninfected media and media with no antibiotic).
7. To each well (except uninfected control row H) add 100 μl of bacterially infected media at a concentration of 1×10^6/ml.
8. This dilutes down the concentration of the antibiotic by half (top dose is therefore 32 μg/ml in column 1) and also gives you a starting bacterial concentration of 5×10^5/ml.
9. Wrap plate with parafilm to prevent evaporation.
10. Leave at desired temperature (37° C. unless specified elsewhere) for 20 hours.
11. Next day check plates for growth and measure optical density (i.e. absorbance) at a wavelength of 600 nm (OD600).
An example of such a plate is shown in FIG. 1 where column A represents wells that receive the top dose 100 μl; column B represents wells that receive the top dose 100 μl+100 μl TSB; and column C represents wells that receive 100 μl TSB. Row H which is marked by a box labelled D represents a blank where the cells receive no bacteria.
The MIC of PP-A418 and colistin against the strains used in the time kill analysis of Example 31 following resistance development were measured. The MIC was measured using the general MIC protocol given above. The results are given in Table 14 below where the MIC values of resistant mutants are shown in the brackets.

T2 sequence (P20083 whole entry): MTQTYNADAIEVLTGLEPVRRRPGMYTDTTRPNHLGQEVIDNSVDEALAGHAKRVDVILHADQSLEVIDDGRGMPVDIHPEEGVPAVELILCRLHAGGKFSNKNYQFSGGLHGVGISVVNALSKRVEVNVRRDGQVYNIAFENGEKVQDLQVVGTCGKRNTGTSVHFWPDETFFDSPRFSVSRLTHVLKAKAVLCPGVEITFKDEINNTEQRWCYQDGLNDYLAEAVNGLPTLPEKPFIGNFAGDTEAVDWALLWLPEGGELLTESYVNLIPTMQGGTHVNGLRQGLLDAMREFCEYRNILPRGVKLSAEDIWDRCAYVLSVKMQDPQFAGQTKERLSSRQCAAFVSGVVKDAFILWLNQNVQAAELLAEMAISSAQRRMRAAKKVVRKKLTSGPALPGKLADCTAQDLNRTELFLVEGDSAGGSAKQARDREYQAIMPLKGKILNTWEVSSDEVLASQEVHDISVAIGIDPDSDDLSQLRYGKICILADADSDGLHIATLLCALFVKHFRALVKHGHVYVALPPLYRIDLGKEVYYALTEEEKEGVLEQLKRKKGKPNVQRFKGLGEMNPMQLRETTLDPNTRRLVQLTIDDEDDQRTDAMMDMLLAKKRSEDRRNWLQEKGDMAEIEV
T2 sequence (P0AFI2 whole entry): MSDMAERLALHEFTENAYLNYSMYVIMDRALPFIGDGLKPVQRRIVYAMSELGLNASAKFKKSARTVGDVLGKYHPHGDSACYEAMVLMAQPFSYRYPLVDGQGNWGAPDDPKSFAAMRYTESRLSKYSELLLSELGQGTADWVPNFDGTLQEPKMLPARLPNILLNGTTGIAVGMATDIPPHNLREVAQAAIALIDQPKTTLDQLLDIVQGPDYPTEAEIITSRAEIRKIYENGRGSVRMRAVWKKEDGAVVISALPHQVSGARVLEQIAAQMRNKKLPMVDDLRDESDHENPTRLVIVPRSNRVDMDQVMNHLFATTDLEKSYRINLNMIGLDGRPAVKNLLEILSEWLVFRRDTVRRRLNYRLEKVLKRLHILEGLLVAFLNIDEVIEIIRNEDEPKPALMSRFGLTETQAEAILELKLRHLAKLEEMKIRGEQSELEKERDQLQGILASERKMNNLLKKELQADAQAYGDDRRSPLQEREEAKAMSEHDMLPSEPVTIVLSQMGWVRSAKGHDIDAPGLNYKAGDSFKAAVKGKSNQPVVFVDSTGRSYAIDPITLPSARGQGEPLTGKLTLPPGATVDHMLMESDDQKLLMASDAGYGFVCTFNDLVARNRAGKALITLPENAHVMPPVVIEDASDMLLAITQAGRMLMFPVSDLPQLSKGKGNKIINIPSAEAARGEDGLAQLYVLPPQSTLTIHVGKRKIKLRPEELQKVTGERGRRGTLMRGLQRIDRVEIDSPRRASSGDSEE
T1 sequence (P0C1U9 whole entry): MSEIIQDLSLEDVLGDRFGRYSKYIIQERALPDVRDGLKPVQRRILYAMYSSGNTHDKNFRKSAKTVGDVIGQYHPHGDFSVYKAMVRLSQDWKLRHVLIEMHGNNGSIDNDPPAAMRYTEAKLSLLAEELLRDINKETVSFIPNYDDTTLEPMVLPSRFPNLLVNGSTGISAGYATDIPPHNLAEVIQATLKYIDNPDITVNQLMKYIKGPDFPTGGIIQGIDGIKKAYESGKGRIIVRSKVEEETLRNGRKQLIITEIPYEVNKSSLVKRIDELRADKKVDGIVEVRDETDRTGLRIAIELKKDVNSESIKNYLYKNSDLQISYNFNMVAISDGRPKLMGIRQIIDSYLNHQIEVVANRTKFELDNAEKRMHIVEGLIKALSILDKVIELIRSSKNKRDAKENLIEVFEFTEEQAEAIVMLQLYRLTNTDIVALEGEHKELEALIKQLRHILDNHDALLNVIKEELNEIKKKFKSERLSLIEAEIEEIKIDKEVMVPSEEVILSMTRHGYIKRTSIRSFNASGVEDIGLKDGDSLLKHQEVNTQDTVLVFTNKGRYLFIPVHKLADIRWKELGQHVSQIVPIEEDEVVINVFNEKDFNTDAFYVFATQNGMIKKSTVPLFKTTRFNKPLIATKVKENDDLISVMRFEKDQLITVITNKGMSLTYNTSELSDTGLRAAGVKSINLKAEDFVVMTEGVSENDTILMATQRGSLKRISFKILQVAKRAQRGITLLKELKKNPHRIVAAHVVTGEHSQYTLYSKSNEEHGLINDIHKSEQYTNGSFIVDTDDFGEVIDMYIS
T1 sequence (P0C1S7 whole entry): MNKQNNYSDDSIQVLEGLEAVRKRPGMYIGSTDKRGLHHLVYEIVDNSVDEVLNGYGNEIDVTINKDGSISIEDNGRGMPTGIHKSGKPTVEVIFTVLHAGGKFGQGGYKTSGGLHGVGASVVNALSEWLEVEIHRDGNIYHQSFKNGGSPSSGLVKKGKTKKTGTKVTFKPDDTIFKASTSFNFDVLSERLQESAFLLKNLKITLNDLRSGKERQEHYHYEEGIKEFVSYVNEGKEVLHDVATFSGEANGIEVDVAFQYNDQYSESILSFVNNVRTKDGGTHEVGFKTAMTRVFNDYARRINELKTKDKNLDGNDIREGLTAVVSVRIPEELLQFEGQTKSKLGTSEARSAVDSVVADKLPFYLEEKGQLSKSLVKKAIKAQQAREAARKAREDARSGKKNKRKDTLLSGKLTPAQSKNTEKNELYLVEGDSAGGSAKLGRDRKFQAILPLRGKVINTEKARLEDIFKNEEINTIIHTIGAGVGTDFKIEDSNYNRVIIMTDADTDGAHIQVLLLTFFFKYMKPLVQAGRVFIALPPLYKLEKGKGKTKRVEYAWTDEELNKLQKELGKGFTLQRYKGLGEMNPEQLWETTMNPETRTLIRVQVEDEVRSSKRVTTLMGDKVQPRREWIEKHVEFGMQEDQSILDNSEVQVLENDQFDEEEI

| Structure (SMILES) | effect on topoisomerase IV [1] | effect on topoisomerase IV [2] | MIC [3] [µg/mL] | MIC [4] [µg/mL] | MIC [5] [µg/mL] | MIC [6] [µg/mL] | MIC [7] [µg/mL] | MIC [8] [µg/mL] | MIC [9] [µg/mL] | MIC [10] [µg/mL] | MIC [11] [µg/mL] | MIC [12] [µg/mL] | MIC [13] [µg/mL] | MIC [14] [µg/mL] | MIC [15] [µg/mL] | MIC [16] [µg/mL] | MIC [17] [µg/mL] |
| --- | --- | --- | --- | --- | --- | --- | --- | --- | --- | --- | --- | --- | --- | --- | --- | --- | --- |
| O=C(O)c1cn(C2CC2)c2cc(N3CCNCC3)c(F)cc2c1=O [CIP, ciprofloxacin, reference compound] | inhibits | inhibits |  |  |  |  |  |  |  |  |  |  |  |  |  |  |  |
| COc1cc2c(cc1OCCCC(=O)Nc1cc(C(=O)Nc3ccc4sc(C(=O)N(C)C)cc4c3)n(C)c1)N=C[C@@H]1CCCN1C2=O [KMR-14-33, (S)—N-(2-(dimethylcarbamoyl)benzo[b]thiophen-5-yl)-4-(4-((7-methoxy-5-oxo-2,3,5,11a-tetrahydro-1H-benzo[e]pyrrolo[1,2-a][1,4]-diazepin-8-yl)oxy)butanamido)-1-methyl-1H-pyrrole-2-carboxamide] |  |  | 2 (≈ 3.05 µM) | 0.125 (≈ 0.19 µM) | 0.5 (≈ 0.761 µM) | 1 (≈ 1.52 µM) | 0.125 (≈ 0.19 µM) | 1 (≈ 1.52 µM) | 1 (≈ 1.52 µM) | 0.25 (≈ 0.381 µM) | 2 (≈ 3.05 µM) | 1 to 2 (≈ 1.52 to 3.05 µM) | 0.125 (≈ 0.19 µM) | 0.5 (≈ 0.761 µM) | 0.5 (≈ 0.761 µM) | 2 (≈ 3.05 µM) |  |
| COc1cc2c(cc1OCCCC(=O)Nc1cc(C(=O)Nc3ccc4oc(C(=O)N5CCSCC5)cc4c3)n(C)c1)N=C[C@@H]1CCCN1C2=O [PP-A148, (S)-4-(4-((7-methoxy-5-oxo-2,3,5,11a-tetrahydro-1H-benzo-[e]pyrrolo[1,2-a][1,4]diazepin-8-yl)oxy)butanamido)-1-methyl-N-(2-(thiomorpholine-4-carbonyl)benzofuran-5-yl)-1H-pyrrole-2-carboxamide] | does not inhibit | does not inhibit |  |  |  |  |  |  |  |  |  |  |  |  |  |  | 64 |
